In patent US10730868B2, “Bicyclic heteroaryl substituted compounds” (BRISTOL-MYERS SQUIBB COMPANY, priority 2016, dated 2020) one finds IC50 data, which are given here for 29 compounds.

Usually IC50 stands for the concentration that inhibits the measured activity by half.

Molecules are shown by their SMILES.

In this experiment the target is PAR4 (Homo sapiens (Human), UniProt Q96RI0). The experiment is described as follows: PAR4 FLIPR assay (antagonism of agonist-peptide-induced calcium mobilization). The experiment is classed as cell-based. The following applies: H-Ala-Phe(4-F)-[…]NH2-induced intracellular calcium mobilization, PAR4-expressing HEK293 cells; read-out: PAR4 FLTPR assay (IC50). The text has this: The Fluorometric Imaging Plate Reader (FLIPR) assay is an exemplary in vitro assay for measuring the activity of the PAR4 antagonists of the present invention. In this assay, intracellular calcium mobilization is induced in PAR4 expressing cells by a PAR4 agonist and calcium mobilization is monitored.
PAR4, sequence (Q96RI0 18-385): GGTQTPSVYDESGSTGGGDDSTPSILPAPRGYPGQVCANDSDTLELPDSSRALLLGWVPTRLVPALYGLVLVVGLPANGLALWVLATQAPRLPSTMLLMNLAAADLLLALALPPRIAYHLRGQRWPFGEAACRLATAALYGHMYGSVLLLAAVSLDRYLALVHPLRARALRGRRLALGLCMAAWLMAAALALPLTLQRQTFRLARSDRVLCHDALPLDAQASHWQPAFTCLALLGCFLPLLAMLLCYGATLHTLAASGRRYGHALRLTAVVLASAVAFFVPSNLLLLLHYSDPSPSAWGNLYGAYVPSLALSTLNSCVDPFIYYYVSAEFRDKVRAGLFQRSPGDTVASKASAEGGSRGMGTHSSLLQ
HEK293 cells stably expressing PAR4 were generated by a standard method of transfection of human PAR4 (F2R23) cDNA expression vector and selected based on PAR4 protein expression or mRNA expression. […] These cells also express endogenous PAR1 and can elicit calcium signal upon stimulation with PAR1 agonist peptide. Therefore, the same cells were also used to determine selectivity against PAR1 and agonist activity for both receptors. Cells from HEK293 PAR4 Clone 1.2A (BMS Arctic ID 383940) were propagated and used for calcium mobilization studies.
FLIPR-based calcium mobilization assay in HEK293 cells was used to measure PAR4 antagonism agonism, and selectivity against PAR1. The activity of the PAR4 antagonists of the present invention were tested in PAR4 expressing cells by monitoring H-Ala-Phe(4-F)-[…]NH2-induced intracellular calcium mobilization. Counter screens for agonist activity and PAR1 antagonist activity were also performed. Briefly, PAR/PAR4-expressing HEK293 cells were grown in DMEM (Life Technology, Grand Island, N.Y.) containing 10% heat-inactivated FBS, 1% Penicillin-Streptomycin, 10 μg/mL blasticidin, and 100 μg/mL Zeocin at 37° C. with 5% CO2. Cells were plated overnight prior to the experiment in a black 384-well Purecoat Amine clear bottom plate (Becton Dickinson Biosciences, San Jose, Calif.) at 10,000 cells/well in 30 μL growth medium and incubated in a humidified chamber at 37° C. with 5% CO2 overnight. Prior to compound addition, the cell medium was replaced with 40 μL of 1× calcium and magnesium-containing Hank's Balanced Saline Solution (HBSS) (with 20 mM HEPES) and 1:1000 diluted fluorescent calcium indicator (Codex Biosolutions, Gaithersburg, Md.). After a 30 minute incubation period at 37° C. and a further 30 minute incubation and equilibration period at room temperature, 20 μL test compound (diluted in 1×HBSS buffer) was added at various concentrations at 0.17% dimethyl sulfoxide (DMSO) final concentration. Changes in fluorescence intensity were measured using a Functional Drug Screening System (FDSS, Hamamatsu, Japan) to determine agonist activities. The cells were then incubated for 30 minutes at room temperature followed by addition of 20 μL of agonist peptide for antagonist activity measurement. […] Compound potency was derived from 11-point concentration-response curves.
Turning to `COc1cnc2c(-c3nc4cc(F)c(OC5CC(F)(F)CC[C@@H]5OC(=O)Nc5cnc(C)nc5)cc4s3)cc(C)cc2n1` (mixture of isomers) [Example 7], the IC50 is 0.67 nM.

`COc1cnc2c(-c3nc4cc(F)c(OC5CC(F)(F)CC[C@@H]5OC(=O)Nc5cnc(OC)nc5)cc4s3)cc(C)cc2n1` (mixture of isomers) [Example 11]: the IC50 was 2.8 nM.

In the case of `COc1cnc2c(-c3nc4cc(F)c(OC5CC(F)(F)CC[C@@H]5OC(=O)Nc5cncc(C#N)c5)cc4s3)cc(C)cc2n1` (mixture of isomers) [Example 12], the IC50 came to 5.7 nM.

Regarding `COc1ccc(NC(=O)O[C@H]2CCC(F)(F)CC2Oc2cc3sc(-c4cc(C)cc5nc(OC)cnc45)nc3cc2F)cn1` (mixture of isomers) [Example 14], the IC50 is 2.4 nM.

For `COc1cnc2c(-c3nc4cc(F)c(OC5CCC[C@@H]5O)cc4s3)cc(C)cc2n1` (mixture of isomers) [Example 21, rac-cis-2-((5-fluoro-2-(2-methoxy-7-methylquinoxalin-5-yl)benzo[c]thiazol-6-yl)oxy)cyclopentanol], the IC50 is 470 nM.

As for `COc1ccc(NC(=O)O[C@@H]2CCC[C@H]2Oc2cc3sc(-c4cc(C)cc5nc(OC)cnc45)nc3cc2F)cn1` (racemic) [Example 28], the IC50 amounted to 96 nM.

Take `COc1ccc(NC(=O)O[C@@H]2CCC[C@@H]2Oc2cc3sc(-c4cc(C)cc5nc(OC)cnc45)nc3cc2F)cn1` (racemic) [Example 33]: the IC50 was 3.1 nM.

With `COc1cnc2c(-c3nc4cc(F)c(O[C@H]5CCC[C@H]5OC(=O)Nc5cnc(C)nc5)cc4s3)cc(C)cc2n1` (racemic) [Example 35], the IC50 was 2.5 nM.

With `COc1cnc2c(-c3nc4cc(F)c(O[C@H]5CCC[C@H]5OC(=O)Nc5cccnc5)cc4s3)cc(C)cc2n1` (racemic) [Example 38], the IC50 amounted to 9.4 nM.

As to `COc1cnc2c(-c3nc4cc(F)c(O[C@@H]5CCC[C@@H]5OC)cc4s3)cc(C)cc2n1` (racemic) [Example 40, rac-5-fluoro-2-(2-methoxy-7-methylquinoxalin-5-yl)-6-((cis-2-methoxycyclopentyl)oxy)benzo[d]thiazole], the IC50 is 83 nM.

With `COc1cnc2c(-c3nc4cc(F)c(O[C@@H]5CCC[C@H]5O)cc4s3)cc(C)cc2n1` (racemic) [Example 41, rac-trans-2-((5-fluoro-2-(2-methoxy-7-methylquinoxalin-5-yl)benzo[d]thiazol-6-yl)oxy)cyclopentanol], the IC50 was determined as 180 nM.

As for `COc1cnc2c(-c3nc4cc(F)c(O[C@@H]5CCC[C@H]5OC)cc4s3)cc(C)cc2n1` (racemic) [Example 42, rac-5-fluoro-2-(2-methoxy-7-methylquinoxalin-5-yl)-6-((trans-2-methoxycyclopentyl)oxy)benzo[d]thiazole], the IC50 was 320 nM.

Regarding `COc1cnc2c(-c3nc4cc(F)c(O[C@@H]5CCC[C@H]5O)cc4s3)cc(CO)cc2n1` (racemic) [Example 43, rac-trans-2-((5-fluoro-2-(7-(hydroxymethyl)-2-methoxyquinoxalin-5-yl)benzo[d]thiazol-6-yl)oxy)cyclopentanol], the IC50 was 22 nM.

On to `COc1cnc2c(-c3nc4cc(F)c(O[C@@H]5CCC[C@@H]5OC(=O)Nc5cccnc5)cc4s3)cc(CO)cc2n1` (racemic) [Example 44, rac-cis-2-((5-fluoro-2-(7-(hydroxymethyl)-2-methoxyquinoxalin-5-yl)benzo[d]thiazol-6-yl)oxy)cyclopentyl pyridin-3-ylcarbamate], for which the IC50 was 25 nM.

As to `COc1cnc2c(-c3nc4cc(F)c(O[C@@H]5CCC[C@@H]5OC(=O)Nc5cncc(C#N)c5)cc4s3)cc(C#N)cc2n1` (racemic) [Example 45, rac-cis-2-((2-(7-cyano-2-methoxyquinoxalin-5-yl)-5-fluorobenzo[d]thiazol-6-yl)oxy)cyclopentyl (5-cyanopyridin-3-yl)carbamate], the IC50 amounted to 2.2 nM.

Consider `COc1cnc2c(-c3nc4cc(F)c(O[C@@H]5CCC[C@@H]5OC(=O)Nc5cnc(C)nc5)cc4s3)cc(C#N)cc2n1` (racemic) [Example 46, rac-cis-2-((2-(7-cyano-2-methoxyquinoxalin-5-yl)-5-fluorobenzo[d]thiazol-6-yl)oxy)cyclopentyl (2-methylpyrimidin-5-yl)carbamate], for which the IC50 is 2 nM.

`COc1ccc(NC(=O)O[C@@H]2CCCC[C@H]2Oc2cc3sc(-c4cc(C)cc5nc(OC)cnc45)nc3cc2F)cn1` (racemic) [Example 53, rac-trans-2-((5-fluoro-2-(2-methoxy-7-methylquinoxalin-5-yl)benzo[d]thiazol-6-yl)oxy)cyclohexyl (6-methoxypyridin-3-yl)carbamate]: the IC50 amounted to 94 nM.

Consider `COc1cnc2c(-c3nc4cc(F)c(O[C@@H]5CCCC[C@H]5OC(=O)Nc5cnc(C)nc5)cc4s3)cc(C)cc2n1` (racemic) [Example 54, rac-trans-2-((5-fluoro-2-(2-methoxy-7-methylquinoxalin-5-yl)benzo[d]thiazol-6-yl)oxy)cyclohexyl (2-methylpyrimidin-5-yl)carbamate], for which the IC50 worked out at 13 nM.

On to `COc1cnc2c(-c3nc4cc(F)c(O[C@@H]5CCCC[C@@H]5OC(=O)Nc5cccnc5)cc4s3)cc(C)cc2n1` (racemic) [Example 55, rac-cis-2-((5-fluoro-2-(2-methoxy-7-methylquinoxalin-5-yl)benzo[d]thiazol-6-yl)oxy) cyclohexyl pyridin-3-ylcarbamate], for which the IC50 turned out to be 1.4 nM.

As to `COc1cnc2c(-c3nc4cc(F)c(O[C@@H]5CCCC[C@@H]5OC(=O)Nc5ccncc5)cc4s3)cc(C)cc2n1` (racemic) [Example 56, rac-cis-2-((5-fluoro-2-(2-methoxy-7-methylquinoxalin-5-yl)benzo[d]thiazol-6-yl)oxy) cyclohexyl pyridin-4-ylcarbamate], the IC50 is 1.8 nM.

For `COc1ccc(NC(=O)O[C@H]2CCCC[C@H]2Oc2cc3sc(-c4cc(C)cc5nc(OC)cnc45)nc3cc2F)cn1` (racemic) [Example 57, rac-cis-2-((5-fluoro-2-(2-methoxy-7-methylquinoxalin-5-yl)benzo[d]thiazol-6-yl)oxy) cyclohexyl (6-methoxypyridin-3-yl)carbamate], the IC50 is 6.1 nM.

For `COc1cnc2c(-c3nc4cc(F)c(O[C@@H]5CC[C@@H]5OC(=O)Nc5cnc(C)nc5)cc4s3)cc(C)cc2n1` (racemic) [Example 61, rac-cis-2-((5-fluoro-2-(2-methoxy-7-methylquinoxalin-5-yl)benzo[d]thiazol-6-yl)oxy) cyclobutyl (2-methylpyrimidin-5-yl)carbamate], the IC50 was determined as 1.3 nM.

`COc1ccc(NC(=O)O[C@H]2CC[C@H]2Oc2cc3sc(-c4cc(C)cc5nc(OC)cnc45)nc3cc2F)cn1` (racemic) [Example 66]: the IC50 was 0.79 nM.

`COc1cnc2c(-c3nc4cc(F)c(O[C@@H]5CC[C@@H]5OC(=O)Nc5cnc(OCCO)nc5)cc4s3)cc(C)cc2n1` (racemic) [Example 71]: the IC50 was 1.6 nM.

`COc1cnc2c(-c3nc4cc(F)c(O[C@@H]5CC[C@@H]5OC(=O)Nc5cnc(OCCO)nc5)cc4s3)cc(Cl)cc2c1` (racemic) [Example 79]: the half-inhibitory concentration (IC50) was found to be 0.9 nM.

In the case of `COc1cnc2c(-c3nc4cc(F)c(O[C@@H]5CC[C@@H]5OC(=O)Nc5cnc(C)nc5)cc4s3)cc(Cl)cc2c1` (racemic) [Example 82], the IC50 worked out at 1.1 nM.

Regarding `COc1cnc2c(-c3nc4cc(F)c(O[C@@H]5CC(C)(C)C[C@@H]5OC(=O)Nc5cnc(C)nc5)cc4s3)cc(C)cc2n1` (racemic) [Example 83], the IC50 amounted to 6.8 nM.

Take `COc1cnc2c(-c3nc4cc(F)c(O[C@@H]5COC[C@@H]5OC(=O)Nc5cnc(C)nc5)cc4s3)cc(C)cc2n1` (racemic) [Example 86, rac-cis-4-((5-fluoro-2-(2-methoxy-7-methylquinoxalin-5-yl)benzo[d]thiazol-6-yl)oxy) tetrahydrofuran-3-yl (2-methylpyrimidin-5-yl)carbamate]: the IC50 was 2.7 nM.

For `COc1ccc(NC(=O)O[C@H]2COC[C@H]2Oc2cc3sc(-c4cc(C)cc5nc(OC)cnc45)nc3cc2F)cn1` (racemic) [Example 87, rac-cis-4-((5-fluoro-2-(2-methoxy-7-methylquinoxalin-5-yl)benzo[d]thiazol-6-yl)oxy) tetrahydrofuran-3-yl (6-methoxypyridin-3-yl)carbamate], the IC50 turned out to be 6.2 nM.
